Data on 57 molecules can be found in patent publication US8101768B2, “Cyclic amine compound and pest control agent” (Nippon Soda Co., Ltd., priority 2004, dated 2012).

This experiment has as its system organophosphorous agent resistant two-spotted spider mites. Nature of the experiment: Effect on Two-spotted Spider Mite (spray on kidney bean leaves). It is filed as in vivo. The following applies: 125 ppm, water dispersible powder of Formulation Example 1 sprayed, 17 female adults, 25° C., 65% humidity, 3 days. The text has this:
Effect on Two-spotted Spider Mite
17 female adults of organophosphorous agent resistant two-spotted spider mites were inoculated onto the first leaves of kidney beans seeded onto 3.5 inch pots and germinated 7 to 10 days before, onto which each of liquid agents, diluted with water so as to adjust the respective concentration of the chemical compounds to 125 ppm according to the formulation of the water dispersible powder shown in the aforementioned Formulation Example 1, was sprayed. After they were left in a thermostatic chamber at 25° C. in 65% humidity for 3 days, the rate of killed adults was investigated. The examination was repeated twice. As the results, the following chemical compounds killed 100% of the adults.
For the molecule `CC(OC(=O)c1cc(C(F)(F)F)ccc1OC1CC2CCC(C1)N2c1ccc(C(F)(F)F)cn1)C1CC1` (stereo not drawn) [2-239], the “rate of killed adults” value was 100%.

As to `CCCOc1cc(C(F)(F)F)ccc1OC1CC2CCC(C1)N2c1ccc(C#N)cn1` (stereo not drawn) [2-93], the “rate of killed adults” value came to 100%. On to `CC(C)=NOc1cc(C(F)(F)F)ccc1OC1CC2CCC(C1)N2c1ccc(C(F)(F)F)cn1` (stereo not drawn) [2-212, 3α-[2-isopropylideneaminoxy-4-(trifluoromethyl)phenoxy]-8-[5-(trifluoromethyl)-2-pyridyl]-8-azabicyclo[3.2.1]octane], for which the “rate of killed adults” value stood at 100%.

Regarding `CCCN(CCC)c1cc(C(F)(F)F)ccc1OC1CC2CCC(C1)N2c1ccc(C(F)(F)F)cn1` (stereo not drawn) [2-159], the “rate of killed adults” value is on record as 100%. As for `CCC=Cc1cc(C(F)(F)F)ccc1OC1CC2CCC(C1)N2c1ccc(C(F)(F)F)cn1` (stereo not drawn) [2-186, 3α-[2-(buten-1-yl)-4-(trifluoromethyl)phenoxy]-8-[5-(trifluoromethyl)-2-pyridyl]-8-azabicyclo[3.2.1]octane], the “rate of killed adults” value came to 100%. Consider `C=CC(C)OC(=O)c1cc(C(F)(F)F)ccc1OC1CC2CCC(C1)N2c1ccc(C(F)(F)F)cn1` (stereo not drawn) [2-235], for which the “rate of killed adults” value was 100%. `CCCCOc1cc(C(F)(F)F)ccc1OC1CCN(c2ccc(C(F)(F)F)cn2)CC1` [1-101]: the “rate of killed adults” value was found to be 100%. With `FC(F)(F)c1ccc(N2CCC(Oc3ccc(C(F)(F)F)cc3OCCBr)CC2)nc1` [1-139] the figure was 100%; with `CC(C)COc1cc(C(F)(F)F)ccc1OC1CC2CCC(C1)N2c1ccc(C(F)(F)F)cn1` (stereo not drawn) [2-98], 100%. Turning to `FC(F)(F)c1ccc(N2CC3CCC(C2)C3Oc2ccc(C(F)(F)F)cc2OCc2cccnc2)nc1` (stereo not drawn) [5-211], the “rate of killed adults” value was 100%. Consider `CC(C)=CCOc1cc(C(F)(F)F)ccc1OC1C2CCC1CN(c1ccc(C(F)(F)F)cn1)C2` (stereo not drawn) [5-139], for which the “rate of killed adults” value came to 100%. `CCCC(O)c1cc(C(F)(F)F)ccc1OC1CC2CCC(C1)N2c1ccc(C(F)(F)F)cn1` (stereo not drawn) [2-184, 3α-[2-(1-hydroxybutyl)-4-(trifluoromethyl)phenoxy]-8-[5-(trifluoromethyl)-2-pyridyl]-8-azabicyclo[3.2.1]octane]: the “rate of killed adults” value is on record as 100%. With `CC(=O)OCCOc1cc(C(F)(F)F)ccc1OC1C2CCC1CN(c1ccc(C(F)(F)F)cn1)C2` (stereo not drawn) [5-134] the figure was 100%. Turning to `FC(F)(F)c1ccc(N2C3CCC2CC(Oc2ccc(C(F)(F)F)cc2ON=C2CCCC2)C3)nc1` (stereo not drawn) [2-227], the “rate of killed adults” value was 100%. With `Cc1noc(-c2cc(C(F)(F)F)ccc2OC2CC3CCC(C2)N3c2ccc(C(F)(F)F)cn2)n1` (stereo not drawn) [2-200], the “rate of killed adults” value worked out at 100%.

As for `CC(C)Oc1cc(C(F)(F)F)ccc1OC1CC2CCC(C1)N2c1ccc(C(F)(F)F)cn1` (stereo not drawn) [2-96], the “rate of killed adults” value is reported as 100%. For `CCC(Cl)c1cc(C(F)(F)F)ccc1OC1CCN(c2ccc(C(F)(F)F)cn2)CC1` (stereo not drawn) [1-82], the “rate of killed adults” value is on record as 100%. With `FC(F)(F)c1ccc(N2CCC(Oc3c(Cl)cc(C(F)(F)F)cc3Cl)CC2)nc1` [1-16], the “rate of killed adults” value was determined as 100%. Regarding `C=C(C)COc1cc(C(F)(F)F)ccc1OC1CC2CCC(C1)N2c1ccc(C(F)(F)F)cn1` (stereo not drawn) [2-147, 3α-[2-(2-methylallyloxy)-4-(trifluoromethyl)phenoxy]-8-[5-(trifluoromethyl)-2-pyridyl]-8-azabicyclo[3.2.1]octane], the “rate of killed adults” value is 100%. The figure for `N#Cc1cc(C(F)(F)F)ccc1O[C@@H]1[C@@H]2CC[C@H]1CN(c1ccc(C(F)(F)F)cn1)C2` [5-32] is 100%. For the molecule `C=C(Cl)COc1cc(C(F)(F)F)ccc1OC1CC2CCC(C1)N2c1ccc(C(F)(F)F)cn1` (stereo not drawn) [2-183], the “rate of killed adults” value is 100%. On to `FC(F)(F)c1ccc(N2CC3CCC(C2)C3Oc2ccc(C(F)(F)F)cc2COC2CCOC2)nc1` (stereo not drawn) [5-231], for which the “rate of killed adults” value is reported as 100%. Consider `OCCOc1cc(C(F)(F)F)ccc1OC1CC2CCC(C1)N2c1ccc(C(F)(F)F)cn1` (stereo not drawn) [2-115], for which the “rate of killed adults” value is listed as 100%. For the molecule `CCC1COC(c2cc(C(F)(F)F)ccc2OC2CC3CCC(C2)N3c2ccc(C(F)(F)F)cn2)=N1` (stereo not drawn) [2-220], the “rate of killed adults” value was 100%.

Take `FC(F)(F)c1ccc(N2C3CCC2CC(Oc2ccc(C(F)(F)F)cc2C2OCCO2)C3)nc1` (stereo not drawn) [2-169, 3α-{2-([1,3]dioxolane-yl)-4-(trifluoromethyl)phenoxy}-8-[5-(trifluoromethyl)-2-pyridyl]-8-azabicyclo[3.2.1]octane]: the “rate of killed adults” value came out at 100%. `CCOC(=O)c1cc(C(F)(F)F)ccc1OC1CC2CCC(C1)N2c1ccc(C(F)(F)F)cn1` (stereo not drawn) [2-193]: the “rate of killed adults” value is recorded as 100%. As to `CCC1COC(c2cc(C(F)(F)F)ccc2O[C@@H]2[C@@H]3CC[C@H]2CN(c2ccc(C(F)(F)F)cn2)C3)N1` (stereo partly drawn) [5-263], the “rate of killed adults” value is 100%. Consider `O=C(OCC1CC1)c1cc(C(F)(F)F)ccc1OC1CC2CCC(C1)N2c1ccc(C(F)(F)F)cn1` (stereo not drawn) [2-237], for which the “rate of killed adults” value was 100%. The figure for `COCCOc1cc(C(F)(F)F)ccc1OC1CC2CCC(C1)N2c1ccc(C(F)(F)F)cn1` (stereo not drawn) [2-112] is 100%. As to `CCCOc1cc(C(F)(F)F)ccc1O[C@@H]1[C@@H]2CC[C@H]1CN(c1ccc(C#N)cn1)C2` [5-96], the “rate of killed adults” value is reported as 100%. `CCC(C)OC(=O)c1cc(C(F)(F)F)ccc1OC1CC2CCC(C1)N2c1ccc(C(F)(F)F)cn1` (stereo not drawn) [2-208]: the “rate of killed adults” value is given as 100%. As for `CCCOc1cc(C(F)(F)F)cc(Cl)c1OC1CC2CCC(C1)N2c1ccc(C(F)(F)F)cn1` (stereo not drawn) [2-95], the “rate of killed adults” value worked out at 100%. In the case of `CCC(C)Oc1cc(C(F)(F)F)ccc1OC1CC2CCC(C1)N2c1ccc(C(F)(F)F)cn1` (stereo not drawn) [2-177], the “rate of killed adults” value is 100%.

In the case of `C=CCOc1cc(C(F)(F)F)ccc1OC1CC2CCC(C1)N2c1ccc(C(F)(F)F)cn1` (stereo not drawn) [2-141], the “rate of killed adults” value came out at 100%. Regarding `CCCNc1cc(C(F)(F)F)ccc1OC1CC2CCC(C1)N2c1ccc(C(F)(F)F)cn1` (stereo not drawn) [2-160], the “rate of killed adults” value turned out to be 100%. As for `Cc1cc(Cl)ccc1OC1CCN(c2ccc(C(F)(F)F)cn2)CC1` [1-49], the “rate of killed adults” value came out at 100%. With `CC(C)(O)COc1cc(C(F)(F)F)ccc1OC1C2CCC1CN(c1ccc(C(F)(F)F)cn1)C2` (stereo not drawn) [5-129] the figure was 100%. Take `CC(C)(C)C(=O)Oc1cc(C(F)(F)F)ccc1OC1C2CCC1CN(c1ccc(C(F)(F)F)cn1)C2` (stereo not drawn) [5-200]: the “rate of killed adults” value is given as 100%. For `CN(C)C(=O)Sc1cc(C(F)(F)F)ccc1OC1CC2CCC(C1)N2c1ccc(C(F)(F)F)cn1` (stereo not drawn) [2-157], the “rate of killed adults” value is listed as 100%. Regarding `N#Cc1ccc(OC2CCN(c3ccc(C(F)(F)F)cn3)CC2)cc1` [1-29], the “rate of killed adults” value was found to be 100%. The figure for `CC(C)=COc1cc(C(F)(F)F)ccc1O[C@H]1C[C@H]2CC[C@@H](C1)N2c1ccc(C(F)(F)F)cn1` [2-245, 3α-[2-(2-methylpropenyloxy)-4-(trifluoromethyl)phenoxy]-8-[5-(trifluoromethyl)-2-pyridyl]-8-azabicyclo[3.2.1]octane] is 100%; for `FC(F)(F)c1ccc(N2CC3CCC(C2)C3Oc2ccc(C(F)(F)F)cc2OCc2ccoc2)nc1` (stereo not drawn) [5-207] it is 100%; for `O=C(OC1CCOC1)c1cc(C(F)(F)F)ccc1OC1CC2CCC(C1)N2c1ccc(C(F)(F)F)cn1` (stereo not drawn) [2-225] it is 100%. Take `CC(C)OC(=O)c1cc(C(F)(F)F)ccc1OC1CC2CCC(C1)N2c1ccc(C(F)(F)F)cn1` (stereo not drawn) [2-196]: the “rate of killed adults” value is 100%. In the case of `FC(F)(F)c1ccc(N2CCC(Oc3cccc(C(F)(F)F)c3)CC2)nc1` [1-76], the “rate of killed adults” value was determined as 100%. The figure for `CC(COc1cc(C(F)(F)F)ccc1OC1C2CCC1CN(c1ccc(C(F)(F)F)cn1)C2)=NO` (stereo not drawn) [5-183] is 100%; for `CCCCc1cc(C(F)(F)F)ccc1O[C@H]1C[C@H]2CC[C@@H](C1)N2c1ccc(C(F)(F)F)cn1` [2-187, 3α-[2-butyl-4-(trifluoromethyl)phenoxy]-8-[5-(trifluoromethyl)-2-pyridyl]-8-azabicyclo[3.2.1]octane] it is 100%; for `[O-][S+](c1ccc(OC2CCN(c3ccc(C(F)(F)F)cn3)CC2)cc1)C(F)(F)F` (stereo not drawn) [1-150] it is 100%.

Turning to `CCCOc1cc(C(F)(F)F)ccc1OC1CC2CCC(C1)[N+]2([O-])c1ccc(C(F)(F)F)cn1` (stereo not drawn) [2-84, 3α-[2-propoxy-4-(trifluoromethyl)phenoxy]-8-oxy-8-[5-(trifluoromethyl)-2-pyridyl]-8-azabicyclo[3.2.1]octane], the “rate of killed adults” value worked out at 100%. `FC(F)(F)c1ccc(N2CC3CCC(C2)C3Oc2ccc(C(F)(F)F)cc2OCC2CCO2)nc1` (stereo not drawn) [5-213]: the “rate of killed adults” value is listed as 100%. Take `C#CCON=Cc1cc(C(F)(F)F)ccc1OC1CC2CCC(C1)N2c1ccc(C(F)(F)F)cn1` (stereo not drawn) [2-221]: the “rate of killed adults” value was 100%.

In the case of `CCCOc1cc(C(F)(F)F)ccc1OC1CC2CCC(C1)N2c1ccc(C)cn1` (stereo not drawn) [2-89], the “rate of killed adults” value was 100%.

`CC(O)COc1cc(C(F)(F)F)ccc1OC1CC2CCC(C1)N2c1ccc(C(F)(F)F)cn1` (stereo not drawn) [2-173]: the “rate of killed adults” value is given as 100%. Consider `CCCOCc1cc(C(F)(F)F)ccc1OC1CC2CCC(C1)N2c1ccc(C(F)(F)F)cn1` (stereo not drawn) [2-171], for which the “rate of killed adults” value was 100%. On to `CCCS(=O)(=O)Oc1cc(C(F)(F)F)ccc1OC1C2CCC1CN(c1ccc(C(F)(F)F)cn1)C2` (stereo not drawn) [5-163], for which the “rate of killed adults” value is 100%.

On to `COC(C)(C)COc1cc(C(F)(F)F)ccc1OC1C2CCC1CN(c1ccc(C(F)(F)F)cn1)C2` (stereo not drawn) [5-130], for which the “rate of killed adults” value amounted to 100%. In the case of `COC(C)CCc1cc(C(F)(F)F)ccc1OC1CC2CCC(C1)N2c1ccc(C(F)(F)F)cn1` (stereo not drawn) [2-192], the “rate of killed adults” value is on record as 100%.
